One data set has as its target T1, human recombinant FPPS (Homo sapiens, UniProt P14324).
T1 sequence (P14324 1-419): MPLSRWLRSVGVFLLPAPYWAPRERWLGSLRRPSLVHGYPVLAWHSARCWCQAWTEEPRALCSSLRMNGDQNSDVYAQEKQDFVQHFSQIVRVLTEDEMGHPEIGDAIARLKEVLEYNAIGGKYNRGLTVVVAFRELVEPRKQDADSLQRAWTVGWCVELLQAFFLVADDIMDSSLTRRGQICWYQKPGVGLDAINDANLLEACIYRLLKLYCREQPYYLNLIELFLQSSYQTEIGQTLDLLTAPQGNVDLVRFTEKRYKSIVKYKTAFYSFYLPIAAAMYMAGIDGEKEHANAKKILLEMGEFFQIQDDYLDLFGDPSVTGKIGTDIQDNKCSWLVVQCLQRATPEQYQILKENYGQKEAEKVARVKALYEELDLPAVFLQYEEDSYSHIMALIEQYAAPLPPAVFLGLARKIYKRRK

Data set [1] relates to phosphorylated Tau protein. Kind of data set: Phospho-Tau bioassay (INNOTEST PHOSPHO-TAU(181P) ELISA) in human immortalized neurons. Format: cell-based. As to conditions: compound 100 nM; for P-Tau: 24 hours, SH-SY5Y cell homogenate; for Ratio P/T: P-Tau/T-Tau. (ELISA stands for enzyme-linked immunosorbent assay.)
The subject of a further data set is total Tau (T-Tau). Put plainly: Total Tau ELISA (Innotest Total Tau, hTau assay) in human immortalized neurons. Format: cell-based. The conditions noted are these: compound 100 nM, 24 hours, SH-SY5Y cell homogenate. As for the experimental part:
(§1) The commercially available INNOTEST® PHOSPHO-TAU(181P) solid-phase enzyme immunoassay was used. In this assay, the phosphorylated Tau protein or fragments are captured by a first monoclonal human specific antibody, HT7 (IgG1). Human immortalized neurons were treated with various compounds at […] and incubated with biotinylated AT270 (IgG1) monoclonal. This antigen-antibody complex is then detected by a peroxidase-labeled streptavidin. After addition of substrate working solution, samples develop a color. The color intensity is a measure for the amount of phosphorylated Tau protein in the sample. This assay has been standardized in numerous research laboratories (for examples see Vanderstichele, H. et al. Alzheimer's & Dementia 2012, 8, 65-73; Zimmermann, R. et al. Journal of Alzheimer's Diseases 2011, 25, 739-745; Blennow, K. et al. Molecular and Chemical Neuropathology 1995, 26, 231-245). Human neuroblastomas SH-SY5Y cell line were used and purchased at the ATCC under the label CRL2266. All compounds were tested in three fixed concentrations at 100 nM, 1 μM and 100 μM in duplicates. We used the 6 well culture plates to grown a significant density of neurons (330,000 cells/well). Cells were grown to 80% confluence in MEM-F12 media with 10% fetal bovine serum, the exposed for 24 hours to the different inhibitors. After one day, the supernatant was removed (and saved at −20° C.). The cell are washed repeatedly in PBS buffer and saved at −80° C. ELISA assays were performed on neuronal cell homogenates using a standardized assay developed by INNOGENETICS called Innotest Total Tau also refers to as the hTau assay and Innotest phospho-Tau (P181). Assays were performed as per manufacturer protocol. The concentration units are in pg of P-Tau per μg of total protein in the cell homogenate. […]; compounds which cause stress or damage to the neurons stimulate the production of P-Tau protein. Lactate dehydrogenase (LDH) activity was measured using a commercial kit; the maximum toxicity was based on % lactic acid dehydrogenases activity in the medium; the control was set at zero.

Data set [2] relates to Human neuroblastomas SH-SY5Y cell line. Put plainly: Lactate dehydrogenase (LDH) activity / toxicity in neurons. Format: cell-based. The protocol: as §1
The mark [3] stands for this setting: read-out: IC50 (μM) in hFPPS Method 2, ~1 nM hFPPS, 0.2 μM GPP and IPP.

Read-outs that look alike come from different tables or passages of the source.

Protocol for human recombinant FPPS: In vitro Enzymatic Inhibition Assay for hFPPS: In vitro sensitized inhibition assay for hFPPS (M2):
For assays run with a 10 min pre-incubation period, the enzyme and inhibitor were incubated in the assay buffer in a volume of 80 μL at 37° C. for 10 min. After 10 min, the substrates were added to start the reaction and also bring the inhibitor and substrate to the desired final concentrations. After addition of all substrates, all assays were incubated at 37° C. for 8 min. Assays were terminated by the addition of 200 μL of HCl/methanol (1:4) and incubated for 10 min at 37° C. The assay mixture was then extracted with 700 μL of ligroin (in order to separate reaction products from unused substrate), dried through a plug of anhydrous MgSO4 and 300 μL of the ligroin phase was combined with 8 mL of scintillation cocktail. The radioactivity was then counted using a Beckman Coulter LS6500 liquid scintillation counter.

With `O=P(O)(O)C(Nc1ncnc2sc(-c3ccc(C4CC4(F)F)cc3)cc12)P(=O)(O)O` (stereo not drawn) [Example 13-1, (((6-(4-(2,2-difluorocyclopropyl)phenyl)thieno[2,3-d]pyrimidin-4-yl)amino)methylene)diphosphonic acid], the IC50 (commonly the midpoint of a concentration-inhibition curve) on human recombinant FPPS (setting [3]) is 0.011 µM.

Regarding `O=P(O)(O)CNc1ncnc2sc(-c3ccc(C4CC4)cc3)cc12` [Example 16-1, (((6-(4-cyclopropylphenyl)thieno[2,3-d]pyrimidin-4-yl)amino)methyl)phosphonic acid], at human recombinant FPPS, the IC50 amounted to 29 µM. In addition, in data set [1], the P-Tau is 0.35 pg of P-Tau per μg of total protein and the “Ratio P/T” value was 0.007. Besides, in the data set on total Tau (T-Tau), the T-Tau worked out at 47 pg/µg protein. Moreover, the LDH in data set [2] (human, 24 h, 100 nM) came out at 7%. `COc1ccc(-c2cc3c(NC(P(=O)(O)O)P(=O)(O)O)ncnc3s2)cc1` [Example 8-1, (((6-(4-methoxyphenyl)thieno[2,3-d]pyrimidin-4-yl)amino)methylene)diphosphonic acid]: on human recombinant FPPS (setting [3]), the IC50 came out at 0.015 µM. `Cc1ccc(-c2cc3c(NC(c4ccccc4)P(=O)(O)O)ncnc3s2)cc1` (stereo not drawn) [Example 36-1, (phenyl((6-(p-tolyl)thieno[2,3-d]pyrimidin-4-yl)amino)methyl)phosphonic acid]: the IC50 at human recombinant FPPS came to 4.2 µM. On to `O=C(O)Cn1c(C(=O)O)cc2ccc3ccccc3c21` [Inhibitor 1], for which, in data set [1], the P-Tau is reported as 0.30 pg of P-Tau per μg of total protein. In addition, the T-Tau in the data set with total Tau (T-Tau) worked out at 65 pg/µg protein. Also, in data set [2] (human, 24 h, 100 nM), the LDH is given as 3%. For the compound `O=P(O)(O)C(Nc1ncnc2sc(-c3ccc(C(F)(F)F)cc3)cc12)P(=O)(O)O` [Example 6-1, (((6-(4-(trifluoromethyl)phenyl)thieno[2,3-d]pyrimidin-4-yl)amino)methylene)diphosphonic acid], the IC50 at human recombinant FPPS (setting [3]) is 0.021 µM.

Turning to `O=P(O)(O)C(O)(Cc1cccnc1)P(=O)(O)O` [Risedronic acid], the P-Tau in data set [1] is recorded as 0.17 pg of P-Tau per μg of total protein. The T-Tau with total Tau (T-Tau) worked out at 38 pg/µg protein. Besides, the Toxicity entry in data set [2] (compound 100 nM, based on LDH) is recorded as “high”. For the same compound, the LDH in data set [2] (compound 100 nM, % lactic acid dehydrogenases activity in the medium, control set at zero) came out at 60%. The “toxicity to neurons” value in data set [2] (human immortalized neurons) is given as “highly toxic”. For the compound `Cc1ccc(-c2sc3ncnc(NCP(=O)(O)O)c3c2N)cc1Cl` [Example 41-1], at human recombinant FPPS, the IC50 was determined as 10 µM. Take `O=P(O)(O)C(Nc1ncnc2sc(-c3ccc4ccccc4c3)cc12)P(=O)(O)O` [Example 10-1]: the IC50 at human recombinant FPPS (setting [3]) was 0.063 µM.

As for `Cc1ccc(-c2sc3ncnc(NCP(=O)(O)O)c3c2N)cc1` [Example 21-1, (((5-amino-6-(p-tolyl)thieno[2,3-d]pyrimidin-4-yl)amino)methyl)phosphonic acid], at human recombinant FPPS, the IC50 was determined as 2.7 µM.

On to `O=P(O)(O)C(Nc1ncnc2sc(-c3ccc(C4CC4)cc3)cc12)P(=O)(O)O` [Example 7-1, (((6-(4-cyclopropylphenyl)thieno[2,3-d]pyrimidin-4-yl)amino)methylene)diphosphonic acid], for which the IC50 at human recombinant FPPS was determined as 0.036 µM. On the same count and under the same terms, as for `Cc1ccc(-c2cc3c(N[C@H](Cc4ccccc4)C(=O)O)ncnc3s2)cc1` [Example 33-1], the figure is 40 µM. Take `O=P(O)(O)C(O)(Cn1ccnc1)P(=O)(O)O` [Zoledronic acid]: the P-Tau in data set [1] is listed as 0.19 pg of P-Tau per μg of total protein. Besides, the T-Tau in the data set on total Tau (T-Tau) came to 34 pg/µg protein. In data set [2], the “toxicity to neurons” value is given as “highly toxic”. For the same compound, the LDH in data set [2] (human, 24 h, 100 nM) was determined as 60%.

On to `Cc1ccc(-c2cc3c(NCP(=O)(O)O)ncnc3s2)cc1` [Example 18-1, (((6-(p-tolyl)thieno[2,3-d]pyrimidin-4-yl)amino)methyl)phosphonic acid], for which the IC50 at human recombinant FPPS (setting [3]) came to 4.5 µM. Same read-out and setting: in the case of `Cc1ccc(-c2cc3c(NC(P(=O)(O)O)P(=O)(O)O)ncnc3s2)cc1` [Example 5-1] it was 0.022 µM. For `Cc1ccc(-c2cc3c(NC(c4ccccc4)P(=O)(O)O)ncnc3s2)cc1Cl` (stereo not drawn) [Example 37-1, (((6-(3-chloro-4-methylphenyl)thieno[2,3-d]pyrimidin-4-yl)amino)(phenyl)methyl)phosphonic acid], the IC50 at human recombinant FPPS was found to be 1.3 µM. Consider `O=P(O)(O)C(Nc1ncnc2sc(-c3ccc(OC4CC4)cc3)cc12)P(=O)(O)O` [Example 11-1, (((6-(4-cyclopropoxyphenyl)thieno[2,3-d]pyrimidin-4-yl)amino)methylene)diphosphonic acid], for which, in data set [1], the P-Tau is 0.30 pg of P-Tau per μg of total protein and the “Ratio P/T” value stood at 0.007. The T-Tau in the data set on total Tau (T-Tau) was 31 pg/µg protein. Also, the LDH in data set [2] (human, 24 h, 100 nM) is 0%.

These data come from patent US20150307532A1, “THIENOPYRIMIDINE INHIBITORS OF […] AND/OR […] PYROPHOSPHATE SYNTHASE” (THE ROYAL INSTITUTION FOR THE ADVANCEMENT OF …, priority 2012, published 2015).
